Measurements published in patent US12486267B2, “Imidazo[1,2-A]pyridine and [1,2,4]triazolo[1,5-A]pyridine derivatives as TLR9 inhibitors for the treatment of fibrosis” (BRISTOL-MYERS SQUIBB COMPANY, priority 2020, dated 2025).

Experiments:
Assay type in all cases: cell-based
human TLR7 = target: T1, human TLR7 (Homo sapiens, UniProt Q9NYK1); experiment: TLR7 inhibition reporter assay (HEK-Blue cells, SEAP reporter); settings: HEK-Blue cells overexpressing human TLR7; stimulated with gardiquimod 7.5 μM; 22 hour incubation; SEAP readout
T1 sequence (Q9NYK1 27-1049): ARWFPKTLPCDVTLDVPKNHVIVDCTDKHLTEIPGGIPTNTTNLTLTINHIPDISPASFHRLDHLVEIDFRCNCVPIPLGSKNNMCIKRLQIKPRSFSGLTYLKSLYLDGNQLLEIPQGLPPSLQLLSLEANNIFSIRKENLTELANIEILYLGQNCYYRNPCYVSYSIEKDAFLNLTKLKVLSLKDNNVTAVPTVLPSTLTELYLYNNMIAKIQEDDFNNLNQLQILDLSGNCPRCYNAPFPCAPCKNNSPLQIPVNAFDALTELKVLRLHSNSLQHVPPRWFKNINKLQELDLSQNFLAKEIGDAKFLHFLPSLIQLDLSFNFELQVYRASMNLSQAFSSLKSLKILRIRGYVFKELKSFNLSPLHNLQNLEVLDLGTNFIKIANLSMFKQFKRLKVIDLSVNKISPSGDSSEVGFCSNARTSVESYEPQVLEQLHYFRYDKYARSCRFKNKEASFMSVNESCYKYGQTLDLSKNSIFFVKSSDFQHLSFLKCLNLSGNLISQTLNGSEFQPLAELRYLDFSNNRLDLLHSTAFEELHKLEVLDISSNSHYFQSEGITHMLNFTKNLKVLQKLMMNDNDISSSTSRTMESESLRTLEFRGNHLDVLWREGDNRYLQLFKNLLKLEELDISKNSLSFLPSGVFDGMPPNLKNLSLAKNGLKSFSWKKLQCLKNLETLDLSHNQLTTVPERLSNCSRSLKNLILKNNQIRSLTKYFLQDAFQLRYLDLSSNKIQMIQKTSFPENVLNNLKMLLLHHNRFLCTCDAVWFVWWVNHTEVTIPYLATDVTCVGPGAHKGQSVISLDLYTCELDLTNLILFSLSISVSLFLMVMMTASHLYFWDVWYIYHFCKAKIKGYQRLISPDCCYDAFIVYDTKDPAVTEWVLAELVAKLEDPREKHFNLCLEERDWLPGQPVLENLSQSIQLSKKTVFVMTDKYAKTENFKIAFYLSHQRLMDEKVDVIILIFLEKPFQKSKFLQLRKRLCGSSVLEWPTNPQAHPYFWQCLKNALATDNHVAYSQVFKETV
In short: (§1)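 HEK-Blue cells with NF-κB/AP-1-driven SEAP pre-treated 30 min with compound (0.05 nM–50 μM), then stimulated with gardiquimod 7.5 μM (TLR7), R848 15.9 μM (TLR8) or ODN2006 5 nM (TLR9). SEAP detected after 22 h at 37 °C; percent inhibition relative to agonist-plus-DMSO and known-inhibitor wells.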

human TLR9 = target: T2, human TLR9 (Homo sapiens, UniProt Q9NR96); experiment: TLR9 inhibition reporter assay (HEK-Blue cells, SEAP reporter); settings: HEK-Blue cells overexpressing human TLR9; stimulated with ODN2006 5 nM; 22 hour incubation; SEAP readout
T2 sequence (Q9NR96 26-1032): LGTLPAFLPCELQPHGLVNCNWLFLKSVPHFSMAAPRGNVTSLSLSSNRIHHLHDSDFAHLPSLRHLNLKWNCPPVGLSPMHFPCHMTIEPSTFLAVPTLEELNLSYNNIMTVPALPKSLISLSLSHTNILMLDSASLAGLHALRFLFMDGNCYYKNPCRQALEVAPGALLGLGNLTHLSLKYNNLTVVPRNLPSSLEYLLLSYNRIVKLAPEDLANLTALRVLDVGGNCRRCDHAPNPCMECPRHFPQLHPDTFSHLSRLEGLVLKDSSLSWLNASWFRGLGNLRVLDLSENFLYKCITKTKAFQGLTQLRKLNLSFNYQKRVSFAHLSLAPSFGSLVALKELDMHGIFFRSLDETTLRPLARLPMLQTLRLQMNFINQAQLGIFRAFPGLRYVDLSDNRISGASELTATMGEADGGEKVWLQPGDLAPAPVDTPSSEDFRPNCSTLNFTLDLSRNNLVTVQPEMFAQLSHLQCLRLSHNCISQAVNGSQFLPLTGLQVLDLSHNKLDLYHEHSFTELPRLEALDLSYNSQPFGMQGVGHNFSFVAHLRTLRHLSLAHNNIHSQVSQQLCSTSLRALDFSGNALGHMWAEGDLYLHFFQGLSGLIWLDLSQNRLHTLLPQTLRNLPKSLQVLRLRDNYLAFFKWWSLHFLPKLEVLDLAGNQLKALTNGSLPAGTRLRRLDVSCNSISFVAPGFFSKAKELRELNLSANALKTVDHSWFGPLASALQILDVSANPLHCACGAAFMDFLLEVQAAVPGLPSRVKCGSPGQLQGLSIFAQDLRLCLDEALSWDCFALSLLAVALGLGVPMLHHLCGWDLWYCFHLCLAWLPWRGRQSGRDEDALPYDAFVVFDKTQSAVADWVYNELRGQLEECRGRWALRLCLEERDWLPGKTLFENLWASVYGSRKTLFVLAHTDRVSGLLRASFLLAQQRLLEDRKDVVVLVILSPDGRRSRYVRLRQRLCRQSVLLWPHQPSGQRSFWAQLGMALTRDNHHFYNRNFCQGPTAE
In short: as §1

human TLR8 = target: T3, human TLR8 (Homo sapiens, UniProt Q9NR97); experiment: TLR8 inhibition reporter assay (HEK-Blue cells, SEAP reporter); settings: HEK-Blue cells overexpressing human TLR8; stimulated with R848 15.9 μM; 22 hour incubation; SEAP readout
T3 sequence (Q9NR97 27-1041): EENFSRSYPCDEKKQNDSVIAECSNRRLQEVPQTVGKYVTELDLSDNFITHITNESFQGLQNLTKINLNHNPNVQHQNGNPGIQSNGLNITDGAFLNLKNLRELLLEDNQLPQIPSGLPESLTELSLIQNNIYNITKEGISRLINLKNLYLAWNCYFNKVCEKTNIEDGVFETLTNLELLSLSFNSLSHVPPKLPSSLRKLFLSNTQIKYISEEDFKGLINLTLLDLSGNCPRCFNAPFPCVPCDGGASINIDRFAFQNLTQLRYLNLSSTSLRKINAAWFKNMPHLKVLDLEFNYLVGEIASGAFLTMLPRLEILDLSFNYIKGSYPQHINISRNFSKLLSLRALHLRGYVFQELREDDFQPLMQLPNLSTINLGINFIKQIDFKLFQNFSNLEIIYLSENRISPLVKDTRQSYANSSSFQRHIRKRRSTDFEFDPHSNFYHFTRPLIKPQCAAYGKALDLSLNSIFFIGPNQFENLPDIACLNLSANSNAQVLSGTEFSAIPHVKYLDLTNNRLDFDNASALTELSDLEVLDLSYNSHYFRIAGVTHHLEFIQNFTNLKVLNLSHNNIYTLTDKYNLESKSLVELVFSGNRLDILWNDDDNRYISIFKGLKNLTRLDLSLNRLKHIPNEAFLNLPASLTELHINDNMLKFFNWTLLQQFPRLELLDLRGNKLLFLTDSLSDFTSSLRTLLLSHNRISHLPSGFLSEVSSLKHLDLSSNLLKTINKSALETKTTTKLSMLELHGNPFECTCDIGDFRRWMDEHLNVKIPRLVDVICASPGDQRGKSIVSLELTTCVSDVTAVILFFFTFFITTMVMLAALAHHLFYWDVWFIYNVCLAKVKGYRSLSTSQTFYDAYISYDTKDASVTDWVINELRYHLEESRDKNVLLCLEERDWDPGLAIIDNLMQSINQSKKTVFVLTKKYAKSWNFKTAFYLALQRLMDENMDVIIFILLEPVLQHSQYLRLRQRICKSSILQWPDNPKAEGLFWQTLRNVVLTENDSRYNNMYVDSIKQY
In short: as §1

IC50 (human TLR7) [µM] | IC50 (human TLR9) [µM] | IC50 (human TLR8) [µM] | Structure (SMILES)
7.7 | 0.205 | > 50 | COc1ccc(-c2cn3c(n2)CC(C2CCN(C4CCN(CC(C)C)CC4)CC2)CC3)cc1OC (racemic) [Example 59, 2-(3,4-dimethoxyphenyl)-7-(1′-isobutyl-[1,4′-bipiperidin]-4-yl)-5,6,7,8-tetrahydroimidazo[1,2-a]pyridine]
> 50 | 0.22 | > 50 | COc1ccc(-c2cn3cc(-c4ccc(N5CCN(CC(C)C)CC5)cc4)cc(C)c3n2)cc1OC [Example 94, 2-(3,4-dimethoxyphenyl)-6-(4-(4-isobutylpiperazin-1-yl)phenyl)-8-methylimidazo[1,2-a]pyridine]
> 50 | 0.067 | > 50 | COc1ccc(-c2cn3c(n2)CC[C@H](C2CCN(C4CC5CCC(C4)N5C(C)C)CC2)C3)cc1OC (single isomer, unassigned) [Example 134]
1.6 | 0.052 | > 25 | COc1ccc(-c2cn3c(n2)CC[C@H](C2CCN(C4CC5CCC(C4)N5CC(C)C)CC2)C3)cc1OC (single isomer, unassigned) [Example 76]
3.8 | 0.052 | > 50 | COc1ccc(-c2cn3cc(C4CCN(C5CCN(C(C)C)CC5)CC4)cc(C)c3n2)cc1OC [Example 2, 2-(3,4-dimethoxyphenyl)-6-(1′-isopropyl-[1,4′-bipiperidin]-4-yl)-8-methylimidazo[1,2-a]pyridine]
2 | 0.014 | > 50 | COc1ccc(-c2cn3cc(C4CCN(C5CC6(C5)CN(CC5CC5)C6)CC4)cc(C)c3n2)cc1OC [Example 16, 6-(1-(2-(cyclopropylmethyl)-2-azaspiro[3.3]heptan-6-yl)piperidin-4-yl)-2-(3,4-dimethoxyphenyl)-8-methylimidazo[1,2-a]pyridine]
3 | 0.0026 | > 50 | CC(C)N1CCCC(N2CCC(c3cc(F)c4nc(-c5ccc(S(C)(=O)=O)cc5)cn4c3)CC2)CC1 (single isomer, unassigned) [Example 72, 8-fluoro-6-(1-(1-isopropylazepan-4-yl)piperidin-4-yl)-2-(4-(methylsulfonyl)phenyl)imidazo[1,2-a]pyridine]
1.1 | 0.021 | 17.1 | CS(=O)(=O)c1ccc(-c2cn3cc(C4CCN(C5CC6CCC(C5)N6C5CCC5)CC4)cc(F)c3n2)cc1 (single isomer, unassigned) [Example 118, 6-(1-(8-cyclobutyl-8-azabicyclo[3.2.1]octan-3-yl)piperidin-4-yl)-8-fluoro-2-(4-(methylsulfonyl)phenyl)imidazo[1,2-a]pyridine]
1.7 | 0.043 | 49 | CS(=O)(=O)c1ccc(-c2cn3cc(C4CCN(C5CC6CCC(C5)N6CC5CC5)CC4)cc(F)c3n2)cc1 (single isomer, unassigned) [Example 115, 6-(1-(8-(cyclopropylmethyl)-8-azabicyclo[3.2.1]octan-3-yl)piperidin-4-yl)-8-fluoro-2-(4-(methylsulfonyl)phenyl)imidazo[1,2-a]pyridine]
3.1 | 0.056 | > 50 | COc1ccc(-c2cn3c(n2)CCC(C2CCN(C4CCN(CC(C)C)CC4)CC2)C3)cc1OC (single isomer, unassigned) [Example 33, 2-(3,4-dimethoxyphenyl)-6-(1′-isobutyl-[1,4′-bipiperidin]-4-yl)-5,6,7,8-tetrahydroimidazo[1,2-a]pyridine]
29 | 1.1 | > 50 | COc1ccc(-c2nc3cc(C4CCN(C5CCN(C(C)C)CC5)CC4)ccn3n2)cc1OC [Example 60, 2-(3,4-dimethoxyphenyl)-7-(1′-isopropyl-[1,4′-bipiperidin]-4-yl)-[1,2,4]triazolo[1,5-a]pyridine]
7.4 | 0.0078 | 46.7 | CC(C)CN1CCCC(N2CCC(c3cc(F)c4nc(-c5ccc(S(C)(=O)=O)cc5)cn4c3)CC2)CC1 (single isomer, unassigned) [Example 126, 8-fluoro-6-(1-(1-isobutylazepan-4-yl)piperidin-4-yl)-2-(4-(methylsulfonyl)phenyl) imidazo[1,2-a]pyridine]
7.8 | 0.057 | > 50 | COc1ccc(-c2cn3c(n2)CCC(C2CCN(C4CCN(C(C)C)CC4)CC2)C3)cc1OC (single isomer, unassigned) [Example 36, 2-(3,4-dimethoxyphenyl)-6-(1′-isopropyl-[1,4′-bipiperidin]-4-yl)-5,6,7,8-tetrahydroimidazo[1,2-a]pyridine]
> 50 | 0.01 | 22.5 | CS(=O)(=O)c1ccc(-c2cn3cc(C4CCN(C5CCCN(C6CCOCC6)CC5)CC4)cc(F)c3n2)cc1 (single isomer, unassigned) [Example 130, 8-fluoro-2-(4-(methylsulfonyl)phenyl)-6-(1-(1-(tetrahydro-2H-pyran-4-yl)azepan-4-yl)piperidin-4-yl)imidazo[1,2-a]pyridine]
